Calls of active or inactive are those of the source. The calls are words filed in the database; no cut-off is given here.
How the values were obtained:
[1] = molecular target: G-protein coupled receptor 146 (Homo sapiens) (UniProt Q96CH1); assay: Activation of human GPR146 expressed in HK2 cells assessed as increase in dynamic mass redistribution response up to 100 uM by DMR assay; type: cell-based
[2] = molecular target: Glucagon-like peptide 1 receptor (Homo sapiens) (UniProt P43220); assay: Activation of human GLP1R expressed in CHO-K1 cells assessed as increase in dynamic mass redistribution response at 100 uM by DMR assay; type: cell-based
Chain of Glucagon-like peptide 1 receptor (Homo sapiens) (P43220 whole entry): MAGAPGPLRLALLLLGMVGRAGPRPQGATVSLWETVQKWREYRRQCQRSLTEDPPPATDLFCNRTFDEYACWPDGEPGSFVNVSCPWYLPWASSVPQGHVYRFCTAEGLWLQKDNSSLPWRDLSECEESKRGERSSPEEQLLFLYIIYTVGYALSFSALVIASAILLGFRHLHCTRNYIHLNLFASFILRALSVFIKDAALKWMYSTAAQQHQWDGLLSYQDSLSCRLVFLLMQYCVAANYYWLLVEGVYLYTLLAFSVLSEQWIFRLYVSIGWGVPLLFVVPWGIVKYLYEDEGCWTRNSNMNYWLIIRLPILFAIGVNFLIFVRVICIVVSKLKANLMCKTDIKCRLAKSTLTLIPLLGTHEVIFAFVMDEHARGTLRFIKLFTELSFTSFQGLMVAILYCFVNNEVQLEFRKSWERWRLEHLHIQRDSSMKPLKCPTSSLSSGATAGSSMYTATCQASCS

[3] = molecular target: G-protein coupled receptor 146 (Homo sapiens) (UniProt Q96CH1); assay: Agonist activity at human GPR146 receptor expressed in HEK293 cells assessed as recruitment of beta-arrestin up to 100 uM by PathHunter assay; type: cell-based
[4] = Drug uptake in CHOK1 cells at 0.1 to 0.5 uM by using Cy3-labeled compound by fluorescence microsocpy; type: ADME, cell-based, Cricetulus griseus; settings: chinese hamster, cho-k1, 0.5 µM
[5] = Drug uptake in CHOK1 cells expressing human GPR146 at 0.1 to 0.5 uM by using Cy3-labeled compound by fluorescence microsocpy; type: ADME, cell-based, Cricetulus griseus; settings: chinese hamster, cho-k1, 0.5 µM
[6] = molecular target: G-protein coupled receptor 146 (Homo sapiens) (UniProt Q96CH1); assay: Activation of human GPR146 expressed in HEK293 cells assessed as increase in dynamic mass redistribution response up to 100 uM by DMR assay; type: cell-based
[7] = Drug uptake in human HK2 cells at 0.1 to 0.5 uM using Cy3-labeled compound by fluorescence microscopy; type: ADME, cell-based; settings: hk-2, 0.5 µM
[8] = molecular target: G-protein coupled receptor 146 (Homo sapiens) (UniProt Q96CH1); assay: Activation of human GPR146 expressed in CHO-K1 cells assessed as increase in dynamic mass redistribution response at 100 uM by DMR assay; type: cell-based
[9] = molecular target: G-protein coupled receptor 146 (Homo sapiens) (UniProt Q96CH1); assay: Activation of human GPR146 expressed in CHO-K1 cells assessed as increase in dynamic mass redistribution response upto 100 uM by DMR assay; type: cell-based
[10] = molecular target: Glucagon-like peptide 1 receptor (Homo sapiens) (UniProt P43220); assay: Activation of human GLP1R expressed in CHO-K1 cells assessed as increase in dynamic mass redistribution response upto 100 uM by DMR assay; type: cell-based
[11] = molecular target: G-protein coupled receptor 146 (Homo sapiens) (UniProt Q96CH1); assay: Activation of human GPR146 receptor expressed in HEK293 cells assessed as increase in dynamic mass redistribution response by DMR assay; type: cell-based
[12] = molecular target: G-protein coupled receptor 146 (Homo sapiens) (UniProt Q96CH1); assay: Activation of human GPR146 receptor expressed in HK2 cells assessed as increase in dynamic mass redistribution response by DMR assay; type: cell-based

Chain of G-protein coupled receptor 146 (Homo sapiens) (Q96CH1 whole entry): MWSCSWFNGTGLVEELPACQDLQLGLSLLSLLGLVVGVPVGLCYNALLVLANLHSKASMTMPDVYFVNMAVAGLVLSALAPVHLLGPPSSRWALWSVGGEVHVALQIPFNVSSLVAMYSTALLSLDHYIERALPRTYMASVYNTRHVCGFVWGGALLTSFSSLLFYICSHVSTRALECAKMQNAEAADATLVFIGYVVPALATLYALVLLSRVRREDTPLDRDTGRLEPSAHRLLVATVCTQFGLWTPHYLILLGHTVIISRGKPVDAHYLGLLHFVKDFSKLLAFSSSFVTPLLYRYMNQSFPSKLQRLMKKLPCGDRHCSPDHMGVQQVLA

| Activity [1] | Activity [2] | Activity [3] | Drug uptake [4] | Drug uptake [5] | Activity [6] | Drug uptake [7] | Activity [8] | Activity [9] | Activity [10] | Activity [11] | Activity [12] | Molecule |
| --- | --- | --- | --- | --- | --- | --- | --- | --- | --- | --- | --- | --- |
| inactive |  | inactive | Not Active | Not Active | inactive | Not Active |  | Active | Active |  |  | H-GADQPVGSEQQVQAGGLEGGLLLGLELPSEA-OH |
| inactive |  | inactive | Not Active | Not Active |  | Not Active | Active |  | Active |  |  | H-EVARQ-OH |

More lines, now with the values behind:

| Molecule | Activity [1] | Activity [2] | Activity [3] | Drug uptake [4] | Drug uptake [5] | Activity [6] | Drug uptake [7] | Activity [8] | Activity [9] | Activity [10] | Activity [11] | Activity [12] |
| --- | --- | --- | --- | --- | --- | --- | --- | --- | --- | --- | --- | --- |
| CC(C)C[C@H](NC(=O)[C@H](C)NC(=O)[C@H](CC(C)C)NC(=O)[C@@H]1CCCN1C(=O)[C@H](CCC(N)=O)NC(=O)[C@H](CC(C)C)NC(=O)[C@H](CO)NC(=O)CNC(=O)[C@H](C)NC(=O)CNC(=O)[C@@H]1CCCN1C(=O)CNC(=O)CNC(=O)CNC(=O)[C@H](CC(C)C)NC(=O)[C@H](CCC(=O)O)NC(=O)[C@@H](NC(=O)[C@H](CCC(N)=O)NC(=O)CNC(=O)[C@@H](NC(=O)[C@H](CCC(N)=O)NC(=O)[C@H](CC(C)C)NC(=O)[C@H](CC(=O)O)NC(=O)[C@H](CCC(=O)O)NC(=O)[C@H](C)NC(=O)[C@@H](N)CCC(=O)O)C(C)C)C(C)C)C(=O)N[C@@H](CCC(=O)O)C(=O)NCC(=O)N[C@@H](CO)C(=O)N[C@@H](CC(C)C)C(=O)N[C@@H](CCC(N)=O)C(=O)O [HUMAN C-PEPTIDE] | inactive | inactive | inactive | Not Active | Not Active | inactive | Not Active | Active |  |  |  |  |
| H-EVEDPQVEQLELGGSPGDLQTLALEVARQ-OH | inactive |  | inactive | Not Active | Not Active | inactive | Not Active |  | Active | Active |  |  |
| C[N+](C)(C)CCOC(N)=O |  |  |  |  |  |  |  |  |  |  | Active | Active |
| H-EGSLQ-OH | inactive |  | inactive | Not Active | Not Active | inactive | Not Active |  | Active | Active |  |  |
